In patent US5607926A, “Cephalosporin antibiotics” (Microcide Pharmaceuticals, Inc., priority 1995, dated 1997):
Converted amounts (≈) assume the structure as drawn. Like-named read-outs stand apart in the source and are kept apart here.

Key:
Type in all cases: cell-based
[1] = tested on: S. aureus ATCC 29213; assay: In vitro antibacterial evaluation, MIC by agar dilution, S. aureus ATCC 29213; details: Staphylococcus aureus, ATCC29213
Procedure: (§1) The compounds of the invention were evaluated against several β-lactamresistant bacteria strains by determining the minimum inhibitory concentration (MIC, μg/ml) of each compound with respect to each strain. The MIC, the lowest concentration of antibiotic which inhibits growth of the test organism, was determined by the agar dilution method.
(§2) To determine the MIC for bacterial isolates, the test compound was incorporated in a series of two-fold dilutions into liquified Mueller-Hinton agar. Upon solidification, a number of different bacterial strains were spot inoculated with a replicating device onto the agar surface. […] The procedures used in these studies have been standardized by the National Committee for Clinical Laboratory Standards (NCCLS), as per the NCCLS publication entitled METHODS FOR DILUTION ANTIMICROBIAL SUSCEPTIBILITY TESTS (1991), which is incorporated herein by reference.
(§3) Aliquots of antimicrobial agents were prepared in phosphate buffered saline (PBS) at pH 7.2. Tween 20 or DMSO was used as a solubilizing vehicle as needed. Standard methods of vortexing, sonicating and gentle heat were used to facilitate solubilizing the test agent. Typically, the concentration of the stock solution was 10× that of the highest drug concentration tested. A 1.28 mg/mL stock solution was used with a subsequent highest working concentration of 128 μg/mL. Serial two-fold dilutions were done through ≤0.25 μg/mL. Each drug level was tested in duplicate. Two-fold drug dilutions were done in sterile 50 mL tubes with a final drug volume of 5 mL. Upon the addition of 45 mL of molten agar, a 10-fold dilution resulted. Two, 25 mL. plates were then poured into 15×150 mm square Petri plates with grids and allowed to harden.
(§4) A control plate with a reference drug, either cefotaxime, vancomycin or imipenem, was used as the positive growth control. Stock concentrations of reference antibiotics were prepared and frozen at -80° C. Upon preparation, the control plates were sealed and stored in the refrigerator for up to 1 week prior to use; however, imipenem control plates had to be prepared just prior to use. All test plates were used within 24 hours of preparation.
(§5) Satisfactory results were obtained where the inoculum contained about 10^4 colony forming units (cfu) ±0.5 logs. Starting with pure cultures of the test isolates on agar plates, a few isolated colonies were transferred to a tube of nutrient broth and allowed to grow 4-6 hours at 35°-36° C. to reach log-phase growth. Dropwise addition of the broth culture to PBS was done to match a 0.5 McFarland turbidity standard equal to 10^8 cfu/mL. This was further diluted ten-fold in PBS to reach a working inoculum concentration of 10^7 cfu/mL. When 1 μL of the working inoculum was applied to the agar surface a concentration of about 10^4 cfu per spot was obtained.
(§6) Disposable sterile 1 μL loops were used to inoculate test plates, with each isolate in a designated grid on the agar plate. An alternate method of inoculation involved the use of a replica plater, a device with 48 steel pins allowing the simultaneous inoculation of multiple isolates. After the spots had dried, the plates were incubated at 35°-36° C. for 16-20 hours. Endpoints were assessed as the minimum inhibitory concentration (MIC) of antimicrobial agent.

[2] = tested on: S. epidermidis ATCC 31432; assay: In vitro antibacterial evaluation, MIC by agar dilution, S. epidermidis ATCC 31432; details: Staphylococcus epidermidis, ATCC31432
Procedure: as §1, §2, §3, §4, §5, §6

[3] = tested on: S. aureus 76 (Meth^R)(lac^+); assay: In vitro antibacterial evaluation, MIC by agar dilution, S. aureus 76; details: Staphylococcus aureus, read-out: MIC
Procedure: as §1, §2, §3, §4, §5, §6

[4] = tested on: S. aureus Col8A (Meth^S)(lac^-); assay: In vitro antibacterial evaluation, MIC by agar dilution, S. aureus Col8A; details: Staphylococcus aureus
Procedure: as §1, §2, §3, §4, §5, §6
The novel agents of this invention are notable for their enhanced activity against S. aureus Col and Enterococci (E. faecium and E. faecalis). The S. aureus Col strain is a high-level PBP2a producer, whereas S. aureus Col 8A, its isogenic partner, lacks PBP2a. […] Thus, the compounds of the present invention are effective against PBP2a-producing bacteria.

[5] = tested on: S. haemolyticus (Meth^R); assay: In vitro antibacterial evaluation, MIC by agar dilution, S. haemolyticus; details: Staphylococcus haemolyticus, read-out: MIC
Procedure: as §1, §2, §3, §4, §5, §6

[6] = tested on: E. faecium ATCC 35667; assay: In vitro antibacterial evaluation, MIC by agar dilution, E. faecium ATCC 35667; details: Enterococcus faecium, ATCC35667, read-out: MIC
Procedure: as §1, §2, §3, §4, §5, §6

[7] = tested on: E. coli ATCC 25922; assay: In vitro antibacterial evaluation, MIC by agar dilution, E. coli ATCC 25922; details: Escherichia coli, ATCC25922, read-out: MIC
Procedure: as §1, §2, §3, §4, §5, §6

[8] = tested on: P. aeruginosa ATCC 27853; assay: In vitro antibacterial evaluation, MIC by agar dilution, P. aeruginosa ATCC 27853; details: Pseudomonas aeruginosa, ATCC27853, read-out: MIC
Procedure: as §1, §2, §3, §4, §5, §6

[9] = S. epidermidis ATCC 31432, read-out: MIC

Compound | MIC [1] [µg/mL] | MIC [2] [µg/mL] | MIC [3] [µg/mL] | MIC [4] [µg/mL] | MIC [5] [µg/mL] | MIC [6] [µg/mL] | MIC [7] [µg/mL] | MIC ([1]; S. aureus ATCC 29213, read-out: MIC) [µg/mL] | MIC [2, 9] [µg/mL] | MIC [8] [µg/mL]
O=C(Cc1ccccc1)N[C@@H]1C(=O)N2C(C(=O)O)=C(Sc3ccc(Cl)c(Cl)c3)CS[C@H]12 [Cmpd 18, (7R)-7-[(Phenylacetyl)amino]-3-(3,4-dichlorophenylthio)-3-cephem-4-carboxylic acid] | < 0.25 | < 0.25 | 16 (≈ 32.3 µM) | < 0.25 | 32 (≈ 64.6 µM) | 4 (≈ 8.07 µM) | > 32 |  |  | 
COC(=O)c1ccccc1SC1=C(C(=O)O)N2C(=O)[C@@H](NC(=O)Cc3ccccc3)[C@H]2SC1 [Cmpd 19, (7R)-7-[(Phenylacetyl)amino]-3-(o-carbomethoxyphenylthio)-3-cephem-4-carboxylic acid] | < 0.25 | < 0.25 | 16 (≈ 33 µM) | < 0.25 | 32 (≈ 66 µM) | 2 (≈ 4.13 µM) | > 32 |  |  | 
O=C(Cc1cccs1)N[C@@H]1C(=O)N2C(C(=O)O)=C(Sc3ccccc3Br)CS[C@H]12 [Cmpd 20, (7R)-7-[(2-Thienylacetyl)amino]-3-(o-bromophenylthio)-3-cephem-4-carboxylic acid] | < 0.25 | < 0.25 | 4 (≈ 7.82 µM) | < 0.25 | 8 (≈ 15.6 µM) | 2 (≈ 3.91 µM) | > 32 |  |  | 
O=C(Cc1ccccc1)N[C@@H]1C(=O)N2C(C(=O)O)=C(Sc3cccc4oc5ccccc5c34)CS[C@H]12 [Cmpd 21, (7R)-7-[(Phenylacetyl)amino]-3-(dibenzofuranyl-1-thio)-3-cephem-4-carboxylic acid] | < 0.25 | < 0.25 | 4 (≈ 7.74 µM) | < 0.25 | 32 (≈ 61.9 µM) | 4 (≈ 7.74 µM) | > 32 |  |  | 
Nc1nc(/C(=N/O)C(=O)N[C@@H]2C(=O)N3C(C(=O)O)=C(Sc4ccccc4I)CS[C@H]23)cs1 [Cmpd 22, (7R)-7-[(Z)-2-(aminothiazol-4-yl)-2-(hydroxyimino)acetamido]-3-(o-iodophenylthio)-3-cephem-4-carboxylic acid] |  |  | 4 (≈ 6.63 µM) | 0.5 (≈ 0.829 µM) | 4 (≈ 6.63 µM) | 2 (≈ 3.31 µM) | 4 (≈ 6.63 µM) | < 0.25 | < 0.25 | 
N#Cc1ccc(-c2ccccc2SC2=C(C(=O)O)N3C(=O)[C@@H](NC(=O)Cc4ccccc4)[C@H]3SC2)cc1 [Cmpd 23, (7R)-7-[(Phenylacetyl)amino]-3-(2-(4-cyanophenyl)phenylthio)-3-cephem-4-carboxylic acid] | < 0.25 | < 0.25 | 8 (≈ 15.2 µM) | < 0.25 | 16 (≈ 30.3 µM) | 2 (≈ 3.79 µM) | > 32 |  |  | 
O=C(Cc1ccccc1)N[C@@H]1C(=O)N2C(C(=O)O)=C(Sc3cccc(Cl)c3Cl)CS[C@H]12 [Cmpd 24, (7R)-7-[(Phenylacetyl)amino]-3-(2,3-dichlorophenylthio)-3-cephem-4-carboxylic acid] | < 0.25 | < 0.25 | 4 (≈ 8.07 µM) | < 0.25 | 8 (≈ 16.1 µM) | 2 (≈ 4.04 µM) | > 32 |  |  | 
O=C(Cc1cccs1)N[C@@H]1C(=O)N2C(C(=O)O)=C(Sc3ccccc3I)CS[C@H]12 [Cmpd 25, (7R)-7-[(2-Thienylacetyl)amino]-3-(o-iodophenylthio)-3-cephem-4-carboxylic acid] | 0.125 (≈ 0.224 µM) |  | 4 (≈ 7.16 µM) | 0.125 (≈ 0.224 µM) | 16 (≈ 28.7 µM) | 2 (≈ 3.58 µM) | > 32 |  | < 0.06 | 
O=C(Cc1cccs1)N[C@@H]1C(=O)N2C(C(=O)O)=C(Sc3cc(Cl)ccc3Cl)CS[C@H]12 [Cmpd 26, (7R)-7-[(2-Thienylacetyl)amino]-3-(2,5-dichlorophenylthio)-3-cephem-4-carboxylic acid] | < 0.25 | < 0.25 | 4 (≈ 7.98 µM) | < 0.25 | 8 (≈ 16 µM) | 2 (≈ 3.99 µM) | > 32 |  |  | 
O=C(Cc1ccccc1)N[C@@H]1C(=O)N2C(C(=O)O)=C(Sc3ccccc3-c3ccco3)CS[C@H]12 [Cmpd 27, (7R)-7-[(Phenylacetyl)amino]-3-(2-(2-furyl)phenylthio)-3-cephem-4-carboxylic acid] | < 0.25 | < 0.25 | 4 (≈ 8.12 µM) | < 0.25 | 16 (≈ 32.5 µM) | 1 (≈ 2.03 µM) | > 32 |  |  | 
O=C(Cc1ccccc1)N[C@@H]1C(=O)N2C(C(=O)O)=C(Sc3ccc(Cl)cc3Cl)CS[C@H]12 [Cmpd 28, (7R)-7-[(Phenylacetyl)amino]-3-(2,4-dichlorophenylthio)-3-cephem-4-carboxylic acid] | < 0.25 | < 0.25 | 4 (≈ 8.07 µM) | < 0.25 | 8 (≈ 16.1 µM) | 2 (≈ 4.04 µM) | > 32 |  |  | 
COc1ccc(CC(=O)N[C@@H]2C(=O)N3C(C(=O)O)=C(Sc4ccccc4I)CS[C@H]23)cc1 [Cmpd 29, (7R)-7-[(p-Methoxyphenylacetyl)amino]-3-(o-iodophenylthio)-3-cephem-4-carboxylic acid] | < 0.25 | < 0.25 | 4 (≈ 6.87 µM) | < 0.25 | 16 (≈ 27.5 µM) | 1 (≈ 1.72 µM) | > 32 |  |  | 
O=C(COc1ccc(Cl)cc1)N[C@@H]1C(=O)N2C(C(=O)O)=C(Sc3ccccc3I)CS[C@H]12 [Cmpd 30, (7R)-7-[(p-Chlorophenoxyacetyl)amino]-3-(o-iodophenylthio)-3-cephem-4-carboxylic acid] | < 0.25 | < 0.25 | 2 (≈ 3.32 µM) | < 0.25 | 4 (≈ 6.64 µM) | 1 (≈ 1.66 µM) | > 32 |  |  | 13 (≈ 21.6 µM)
O=C(COc1ccc(Cl)cc1)N[C@@H]1C(=O)N2C(C(=O)O)=C(Sc3cc(Cl)ccc3Cl)CS[C@H]12 [Cmpd 31, (7R)-7-[(p-Chlorophenoxyacetyl)amino]-3-(2,5-dichlorophenylthio)-3-cephem-4-carboxylic acid] | < 0.25 | < 0.25 | 4 (≈ 7.33 µM) | < 0.25 | 8 (≈ 14.7 µM) | 4 (≈ 7.33 µM) | > 32 |  |  | 
COc1ccc(CC(=O)N[C@@H]2C(=O)N3C(C(=O)O)=C(Sc4cc(Cl)ccc4Cl)CS[C@H]23)cc1 [Cmpd 32, (7R)-7-[(p-Methoxyphenylacetyl)amino]-3-(2,5-dichlorophenylthio)-3-cephem-4-carboxylic acid] | < 0.25 | < 0.25 | 4 (≈ 7.61 µM) | < 0.25 | 16 (≈ 30.5 µM) | 2 (≈ 3.81 µM) | > 32 |  |  | 
O=C(Cc1ccccc1)N[C@@H]1C(=O)N2C(C(=O)O)=C(Sc3cc(F)ccc3Br)CS[C@H]12 [Cmpd 33, (7R)-7-[(Phenylacetyl)amino]-3-(2-bromo-5-fluorophenylthio)-3-cephem-4-carboxylic acid] | < 0.25 | < 0.25 | 4 (≈ 7.64 µM) | < 0.25 | 16 (≈ 30.6 µM) | 1 (≈ 1.91 µM) | > 32 |  |  | 
O=C(Cc1ccccc1)N[C@@H]1C(=O)N2C(C(=O)O)=C(Sc3cccc4ccccc34)CS[C@H]12 [Cmpd 54, (7R)-7-[(Phenylacetyl)amino]-3-(1-naphthalenylthio)-3-cephem-4-carboxylic acid] | < 0.25 | < 0.25 | 8 (≈ 16.8 µM) | < 0.25 | 16 (≈ 33.6 µM) | 4 (≈ 8.39 µM) | > 32 |  |  | > 32
